One data set relates to Caco-2 cell monolayer. Put plainly: Caco-2 monolayer metabolism experiment, metabolites identified via UHPLC-DAD-MS(/MS). Format: in vitro ADME, human. The settings on record: for Possible metabolite (phase II metabolite identified by MS/MS fragmentation and comparison with reference compound after enzymatic hydrolysis): glucuronidase/sulfatase cleavage, UHPLC-DAD-MS/MS; for Extent of phase I and II metabolism (in words): independent of incubation time and concentration. The protocol:
To obtain information on the in vitro metabolism of the six tested C-glycosidic flavonoids in the intestine, experiments were carried out using the Caco-2 monolayer model (Figure 2). Metabolite profiles were characterized at two different concentrations (10 and 100 µM; n = 3) and after two different incubation times (3 or 5 h; n = 3) in order to determine the influence of concentration and time on the metabolism reactions that occurred. Furthermore, to analyze the distribution of the observed metabolites, samples were collected from the cell lysate and the apical and basolateral compartments. All samples of the metabolism experiments using the Caco-2 cell monolayer were analyzed using UHPLC-DAD-MS and UHPLC-DAD-MS/MS. Metabolites were identified by libraries that were prepared for each compound (Tables S1–S6). The O and IO libraries contained 67 metabolites (Tables S1 and S2), the S and IS libraries contained 106 metabolites (Tables S3 and S4), and the V and IV libraries contained 71 possible metabolites (Tables S5 and S6).
To form a confluent and differentiated monolayer, cells at passages 16–45 were seeded into the inserts of 12-well Transwell® plates at a density of 3.0 × 10^5 cells/cm^2. Afterwards, the culture medium was replaced every day, and the metabolism experiment was performed 21 days after seeding. The apical and basolateral compartments contained 0.5 and 1.5 mL of cell culture medium, respectively.
On day 21, the cell culture medium was removed from the apical and basolateral compartments, and the Caco-2 cell monolayer was washed two times with prewarmed HBSS. The Transwell® plates containing HBSS were incubated at 37 °C for 15 min to measure the transepithelial electrical resistance (TEER) value. The integrity of the cell monolayers was evaluated by TEER values between the apical and basolateral sides with the Evohm2 system (World Precision Instruments, Sarasota, FL, USA). The cell inserts were only used for the metabolism experiments if the resistance exceeded 350 Ω/cm^2. The six test substances were dissolved in DMSO to a stock solution of 20 mM. The HBSS was adjusted to pH 6.0 and 7.4 with 1 M HCl. Afterwards, the stock solutions were diluted to 10 or 100 µM in an appropriate volume of HBSS (pH 6.0) to obtain a DMSO concentration of <1%. The test solutions were added to the apical side (0.5 mL), while the basolateral side was filled with 1.5 mL of HBSS (pH 7.4). The Transwell® plates were incubated at 37 °C for 3 or 5 h, respectively. After this period, solutions from the apical and basolateral compartments were collected in separate tubes, washed twice with 500 µL of HBSS, and then collected again. The samples were lyophilized and stored at −20 °C until they were measured using UHPLC-DAD-MS. After the experiment, Transwell® inserts were apically (0.5 mL) and basolaterally (1.5 mL) filled with HBSS and warmed to 37 °C for 20 min. Then, the TEER values were measured to guarantee the integrity of the monolayer during the experiment. The experiment was performed in triplicate for each substance, concentration, and incubation time.
After the metabolism experiment, cell monolayers were washed twice with PBS and incubated with 200 µL of trypsin-EDTA for 10 min at 37 °C in an atmosphere of 5% CO2 and constant humidity in the incubator. The cells were removed from the well by pipetting up and down, and were collected in a tube. The well was washed twice with PBS (1 mL), and the wash solution was also collected in the corresponding tube. The mixture was centrifuged (1000× g rpm, 5 min), and the supernatant was discarded.

Data set [1] is described as follows: Stability testing in test buffer (HBSS pH 6.0) under assay conditions, HPLC-DAD. It counts as physicochemical. The settings on record: 10 µM in HBSS pH 6.0, 37 °C, 5% CO2; after 3 h of incubation. Here is the method: To guarantee the stability of all test substances during the metabolism assay on Caco-2 cells, they were incubated in the test buffer under assay conditions. Test samples were collected each hour for 5 h and were measured via HPLC-DAD.
To ensure stability during the Caco-2 metabolism experiments, all test substances were dissolved in DMSO to a concentration of 20 mM and diluted to 10 µM in an appropriate volume of HBSS (pH 6.0), resulting in a DMSO concentration of less than 1%. The test solution (1 mL) was aliquoted into a 12-well Transwell® plate and incubated for 5 h in an atmosphere of 5% CO2 and 90% relative humidity at 37 °C. Test samples (100 µL) were collected after t = 0, 1, 2, 3, 4, and 5 h and measured via HPLC-DAD. The peak area of the test substance at time t = 0 h was defined as 100%, and all other peak areas were related to calculate the proportional stability. The stability was calculated as % = area/area0 × 100. Stability testing was performed on three independent days with freshly prepared solutions (n = 3).
The system consisted of the following: Elite LaChrom with an L2200 autosampler, L2130 pump, L2350 column oven, L2444 DAD, and EZChrom Elite 3.1.7 software (Hitachi, Tokyo, Japan); column: Kinetex® Biphenyl, 100 Å, 250-4.6 mm (5 µm, same material precolumn; Phenomenex, Torrance, CA, USA); injection volume 30 µL; oven temp.: 25 °C; autosampler temp.: 10 °C; detection wavelength: 340 nm; flow: 1.2 mL/min; A = H2O + 0.1% TFA, B = acetonitrile + 0.1% TFA; gradient: 0–2 min 10% B, 2–10 min 10% B → 100% B, 10–11 min 100% B → 10% B, 11–15 min 10% B.

The next data set has as its system Caco-2 cells. Put plainly: MTT assay under metabolic conditions (cell viability). Format: cell-based, human. The settings on record: 10, 25, 50, 75, 100 µM in HBSS (pH 6.0), 5 h incubation. Here is the method:
All six substances were tested in five different dilutions in HBSS (pH 6.0). The determined viability values of O, IO, S, IS, V, and IV are listed in the Supplementary Materials (Figure S2).
Caco-2 cells in the logarithmic growth phase were seeded in 96-well plates at a density of 3 × 10^4 cells/well and incubated at 37 °C in an atmosphere of 5% CO2 and constant moisture in an incubator. After 24 h, the cell culture medium was removed, and 100 µL of HBSS solution (negative control), 0.5% DMSO in HBSS solution (solvent control), or flavonoid samples in HBSS solution (6 flavonoids at concentrations of 10, 25, 50, 75, and 100 µM) was applied in quintuplicate and incubated for 5 h. Afterwards, the HBSS solutions were removed and replaced with an MTT solution in DMEM (0.4 mg/mL) and incubated for another 3 h at 37 °C. Then, the MTT solution was discarded, and the cells were fixed with a 10% SDS solution in PBS and stored at room temperature in the dark. After 24 h, the absorbance was measured on a Tecan microplate reader (Tecan Trading AG, Switzerland) at 560 nm. The viability rate was calculated as % = A/A0 × 100, with A as the average absorbance value of the treatment and solvent control groups and A0 as the average absorbance value of the negative control group. The assay was performed three times in pentaplicate.
The human colon adenocarcinoma cell line Caco-2 was obtained from the ATCC (American Type Culture Collection, Manassas, VA, USA). The cell line was determined to be free of mycoplasma contamination by PCR and culture from GATC Biotech AG (Konstanz, Germany). The cells were cultured in DMEM supplemented with 10% (v/v) FBS, 1% (v/v) NEAA, and 1% (v/v) antibiotics (penicillin/streptomycin) in an atmosphere of 5% CO2 and 90% relative humidity at 37 °C. The culture medium was replaced every 3 days, and the cells were split 1:5 using trypsin-EDTA once 90% confluence was obtained.
(In general: Formazan colour is commonly taken as a measure of viable cells.)

The mark [2] stands for this setting: initial concentration 10 µM, 3 h, apical compartment.
The mark [3] stands for this setting: initial concentration 10 µM, 5 h, apical compartment.
Setting [4] is: initial concentration 100 µM, 3 h, apical compartment.
Setting [5] is: initial concentration 100 µM, 3 h, basolateral compartment.
Setting [6] is: initial concentration 100 µM, 5 h, apical compartment.

Entries after “also recorded” stand apart in the source; their conditions may differ.

`O=c1cc(-c2ccc(O)c(O)c2)oc2c([C@@H]3O[C@H](CO)[C@@H](O)[C@H](O)[C@H]3O)c(O)cc(O)c12` [O, orientin]: the “Extent of metabolism (in words)” value in the data set with Caco-2 cell monolayer (10 µM, 3 and 5 h) is “broader ranges of phase I and II metabolites”; in the data set with Caco-2 cell monolayer (100 µM, 3 and 5 h), “extensive metabolism”. Further, the “Metabolites of the aglycones (cleavage of the C–C glycosidic bond)” value in the data set on Caco-2 cell monolayer (100 µM approach) is “metabolites of the corresponding aglycones apigenin and luteolin were also detected”. Further, the “Possible metabolite (phase II metabolite identified by MS/MS fragmentation and comparison with reference compound after enzymatic hydrolysis)” value in the data set with Caco-2 cell monolayer (metabolite at RT 3.146 min, m/z 527.0499) is on record as “O-sulfate”; in the data set with Caco-2 cell monolayer (metabolite at RT 5.134 min, m/z 477.0674) it was “Quercetin-glucuronide”; in the data set with Caco-2 cell monolayer (metabolite at RT 5.476 min, m/z 461.0724), “Luteolin-glucuronide”. In addition, the “Extent of phase I and II metabolism (in words)” value in the data set with Caco-2 cell monolayer was “highly metabolized in phase I and II reactions”. Also, the Possible metabolite detected entry in the data set on Caco-2 cell monolayer (setting [2]) is on record as “Orientin-sulfate; also recorded: Hydroxy-methoxy-orientin”; with Caco-2 cell monolayer (initial concentration 10 µM, 3 h, basolateral compartment) it was “Orientin-sulfate; also recorded: Hydroxy-methoxy-orientin”; in the data set with Caco-2 cell monolayer (setting [3]), “Orientin-sulfate; also recorded: Methoxy-orientin”; in the data set with Caco-2 cell monolayer (setting [4]), “Orientin-sulfate; also recorded: Hydroxy-luteolin-glucuronide; also recorded: Methoxy-luteolin; also recorded: Hydroxy-methoxy-orientin”; in the data set with Caco-2 cell monolayer (setting [5]) it was “Orientin-sulfate”; in the data set with Caco-2 cell monolayer (setting [6]), “Orientin-sulfate; also recorded: Hydroxy-luteolin-glucuronide; also recorded: Hydroxy-methoxy-orientin”. The Possible metabolite detected result with Caco-2 cell monolayer (initial concentration 100 µM, 5 h, cell lysate) is listed as “Methoxy-orientin”. Moreover, the “Stability (content relative to t = 0 h)” value in data set [1] is reported as “approximately 100%”. In addition, the “Effect on the viability of Caco-2 cells (in words)” value in the data set with Caco-2 cells was “no significant effects at any concentration”.
For the compound schaftoside, the “Extent of metabolism (in words)” value is “very limited metabolism” with Caco-2 cell monolayer (10 µM, 3 and 5 h); “a few hydroxylated and methoxylated derivatives” in the data set on Caco-2 cell monolayer (100 µM, 3 and 5 h). In the data set on Caco-2 cell monolayer (10 µM, 3 and 5 h), the “Phase II conjugates containing glucuronic acid or sulfates” value is “No phase II conjugates containing glucuronic acid or sulfates were detectable”. In the data set on Caco-2 cell monolayer (100 µM, 3 and 5 h), the “Phase II metabolites with glucuronic acid or sulfates” value was “lacked the presence of phase II metabolites with glucuronic acid or sulfates”. Besides, the “Extent of phase I and II metabolism (in words)” value in the data set with Caco-2 cell monolayer is “poorly metabolized in phase I and II reactions”. Besides, the Possible metabolite detected result with Caco-2 cell monolayer (setting [2]), in the data set on Caco-2 cell monolayer (setting [3]), in the data set on Caco-2 cell monolayer (setting [4]), in the data set on Caco-2 cell monolayer (setting [5]) and with Caco-2 cell monolayer (setting [6]) was “Hydroxy-methoxy-schaftoside” each time. In addition, the “Stability (content relative to t = 0 h)” value in data set [1] is reported as “approximately 100%”. The “Effect on the viability of Caco-2 cells (in words)” value in the data set on Caco-2 cells is given as “no significant effects at any concentration”.

Source of the values: article PMC8234803, “In Vitro Metabolism of Six C-Glycosidic Flavonoids from Passiflora incarnata L” (International Journal of Molecular Sciences, 2021).
